Laboratory results taken from patent US20240117431A1, “STEM-CELL BASED BIOMARKER DISCOVERY” (THE REGENTS OF THE UNIVERSITY OF CALIFORNIA, priority 2020, published 2024).

Experiments:
[1] = test system: mutants TgUPRT; experiment: Phosphoribosyltransferase activity with recombinant TgUPRT mutants; format: biochemical, Toxoplasma gondii; conditions: five recombinant TgUPRT mutants, FIG. 9A
Description: Enzyme activity assay: The standard activity assay was performed by incubating 10 μL of free extract or 0.5 μg of pure His-tag enzyme with 1 mM Phosphoribosyl pyrophosphate (PRPP), 1 mM uracil, 5 mM MgCl2 in 50 mM PBS buffer pH 7.4 in a final volume of 80 μL. The reaction mixture was incubated at 37° C. for 2-5 min (300 rpm). Enzyme was inactivated by adding 80 μL of cold methanol in ice-bath and heating for 5 min at 100° C. After centrifugation at 9000×g for 5 min, samples were half-diluted with water and the NMP production was analysed by HPLC to quantitatively measure the reaction products as described below in the analytical methods. All determinations were carried out in triplicate assuming Michaelis-Menten conditions, and the maximum error was below 5%. In such conditions, one international activity unit (IU) was defined as the amount of enzyme producing 1 μmol/min of UMP under the assay conditions.
Substrate specificity studies Enzymatic synthesis of the different pyrimidine nucleoside monophosphate (NMP) derivatives was carried out by incubating 0.5 μg of pure His-tag enzyme with 1 mM PRPP, 1 mM pyrimidine base and 5 mM MgCl2 in 50 mM PBS buffer pH 7.4 (1.6-3.2% v/v DSMO). The experiments were performed according to the standard assay. Subsequently, the reaction mixture was processed as described above and the NMP production was analyzed by HPLC.
Analytical methods: The production of NMPs was quantitatively measured with an ACE EXCEL 5 μm CN-ES 250×4.6 mm equilibrated with 100% trimethyl ammonium acetate at a flow rate of 0.8 mL/min. Retention times for the reference bases and NMPs (hereafter abbreviated according to the recommendations of the IUPAC-IUB Commission on Biochemical Nomenclature) were as follows: uracil (Ura), 4.7 min; 5-azido uracil (5-AUra). […]
Following these exciting observations, a more quantitative approach to examined for differences between enzyme mutants and their enzyme kinetics with the analogs. […] Each purified enzyme was incubated with the different substrates and phosphoribosyltransferase activity was measured (FIG. 9A).

[2] = test system: (−)TgUPRT HEK cells; experiment: Background incorporation of uracil analogs into RNA, streptavidin-HRP dot blot; format: cell-based; conditions: for incorporation into RNA at higher concentration: 1 mM, mimics in vivo applications, FIG. 4
Description: Transfection, labeling of cellular RNA and RNA isolation: After 48h seeding, HEK293 cells were transfected with 2.5 μg of TgUPRT WT or mutant plasmids (pKN-CMV-TgUPRT-WT or -Mutt to Mut17) per 5 cm plate using JetPrime Transfection reagent (Polyplus Transfection, France). At 40h post-transfection, cells were incubated with a final concentration of 200 μM at <1% DMSO from 400 mM stock of uracil analogs (5EU, 5VU, 5AU) or 200 mM SAMU stock for 5 h. For time course study, HEK cells were treated with 200 μM uracil analogs for 0 h, 0.5, 1, 3, 5, 12 and 24 hours. For titrating uracil analog concentration experiments, HEK cells were treated with 0 (DMSO), 50, 100, 200, 500 μM or 1 mM uracil analog for 5h. Treated HEK cells were subjected to total RNA extraction using 1 mL Trizol Reagent (Invitrogen) following the manufacturer instructions.
Biotinylation via CuAAC and IEDDA: Cu-mediated Azide-Alkyne cycloaddition (CuAAC) click reactions were performed in 50 μL reaction at 22° C. on a shaker for 30 min with click reaction cocktail containing 15 μg of total RNA, 1 mM biotin alkyne or biotin azide, fresh 4.6 mM THPTA to a final concentration of 1 mM, and fresh 10.6 mM sodium ascorbate (NaAsc) at final concentration of 1.77 mM, and 12 mM CuSO4 at final concentration of 200 μM in biotinylation reaction buffer (10 mM TrisHCI, 1 mM EDTA, pH7.4). The biotinylated RNA was purified using RNA clean & Concentrator-5 kit (Zymo Research, Cat #R1013) according to the manufacturer instructions and eluted in 21 μL of nuclease free water.
Inverse electron demand [4+2] Diels-Alder cycloaddition (IEDDA) click reactions were performed in 50 μL at 37° C. or 22° C. (RT) for 3h on mixer at 500 rpm containing 10-15 μg of total RNA, 1 mM final concentration of biotin-benzyl tetrazine (Sigma Aldrich, Cat #793329-5MG) in nuclease free water. Clicked total RNA was purified using RNA clean & Concentrator-5 kit (Zymo Research, Cat #R1013) according to the manufacturer instructions, and RNA was eluted in 21 μL of nuclease free water.
HRP-streptavidin dot blot analysis: All gel reagents were from Bio-Rad. For dot blot analysis, 2 μg of clicked total RNA was applied onto Hybond-N+ membrane (GE Healthcare) as individual dots and UV-crosslinked (254 nm) to a membrane (Stratalinker UV crosslinker). Membranes were blocked in blocking buffer (0.12 M NaCl, 0.016 M Na2HPO4, 0.008 M NaH2PO4, 0.17 M SDS) and followed by incubation with high sensitivity streptavidin-HRP (Fisher Scientific, Cat #: P121130) at 1:5000 dilution in blocking buffer for 5 minutes. The membrane was washed twice in a Wash A buffer (1:10 dilution of blocking buffer) and twice in Wash B buffer (Tris-saline buffer). […]

Structure (SMILES)	reactivity with the mutants (phosphoribosyltransferase activity) [1]	incorporation into RNA at higher concentration [2]	background incorporation into RNA ([2]; (−)TgUPRT HEK cells, FIGS. 3A, 3B)
C=Cc1c[nH]c(=O)[nH]c1=O [compound 2, 5-Vinylpyrimidine-2,4(1H,3H)-dione]	increased dramatically	not observed	
C#Cc1c[nH]c(=O)[nH]c1=O [compound 1, 5-ethynylpyrimidine-2,4(1H,3H)-dione]	10 IU/mg	very robust incorporation	low level of background incorporation
